Assay results published in patent publication US20250084178A1, “ANTI-CD39 ANTIBODIES AND USE THEREOF” (ARCUS BIOSCIENCES, INC., priority 2022, published 2025).

Columns and labels:
[1] = tested on: SK-MEL-5 cells; assay: Extracellular ATP release after oxaliplatin, SK-MEL-5 cells; assay type: cell-based, human; settings: 250 μM oxaliplatin, 8 hours
Method: (§1) To evaluate cellular ATP release following oxaliplatin treatment, murine colon carcinoma cell lines CT26 and MC38 and human melanoma cell line SK-MEL-5 were defrosted, rinsed, and resuspended in their respective culture media. Culture media for CT26 and MC38 is RPMI+10% FBS+1% glutamax+1% penicillin-streptomycin+1% sodium pyruvate. Culture media for SK-MEL-5 is EMEM+10% FBS+1% glutamax+1% penicillin-streptomycin+1% sodium pyruvate. Cells were plated at 2.5×10^4 cells per well in a 96-well plate and incubated overnight at 37° C., 5% CO2. The following day, the cells were treated with the vehicle (PBS), 100 μM or 250 μM oxaliplatin. […] To determine cellular viability, the cells were incubated with treatments for 24 hours at 37° C., 5% CO2. At the end of the incubation period, viability was determined using luminescence-based Cell Titer Glo 2.0 assay (Promega, Cat. No. G9242). Data are presented as viability normalized to untreated vehicle controls (FIG. 19A). To determine HMGB1 release, the cells were incubated with treatment for 24 hours at 37° C., 5% CO2. At the end of the incubation period, the plates were centrifuged at 400×g for 5 minutes and supernatants were collected. HMGB1 levels in the culture supernatants were then determined using Lumit HMGB1 Kit (Promega, Cat. No. CS3030B01) following manufacturer's instructions (FIG. 19B). […]

[2] = tested on: CT26 and MC38 cells; assay: Extracellular ATP release after oxaliplatin, murine colon carcinoma lines; assay type: cell-based; settings: 250 μM oxaliplatin, 8 hours
Method: as §1

## O=C1[O][Pt]2([NH][C@@H]3CCCC[C@H]3[NH]2)[O]C1=O [oxaliplatin, reference compound]
[1]
  Extracellular ATP release: demonstrated ATP release
[2]
  Extracellular ATP release: demonstrated ATP release
